Test results taken from patent US4005219A, “Pharmaceutical compositions and their administration for the prophylaxis of asthma, hayfever and rhinitis” (Beecham Group Limited, priority 1974, dated 1977).

Test system: PCA response
Experiment: Rat Passive Cutaneous Anaphylaxis (PCA) test
Format: in vivo, Wistar rats
Settings: iv
Protocol: All of the 2-nitro indane-1,3-diones prepared in the preceeding Examples were submitted for biological testing. The test system was the Rat Passive Cutaneous Anaphylaxis (PCA) test described below in (II).
7, 681Serum containing heat labile homocytotropic antibody was raised in rats by a method similar to that used by Mota. (I. Mota Immunology 1964, 7, 681).
Male Wistar rats of 250-300g, were injected intraperitoneally with 0.5ml. of Bordetella pertussis vaccine (containing 4 × 10^10 dead oranism per ml. and subcutaneously with 0.5ml. of an emulsion of 100mg. of ovalbumin in 2ml of saline and 3ml of incomplete Freunds' adjuvant. Rats were bled by cardiac puncture on day 18, the blood was pooled and separated and serum stored at -20° and thawed only once before use.
II. The P.C.A. test was similar to that described by Ovary and Bier (A. Ovary and O. E. Bier. Proc. Soc. Exp. Biol. Med. 1952, 81, 584) and Goose and Blair (J. Goose and A. M. J. N Blair Immunology 1969, 16, 749).
0.1ml of each of six twofold serial dilutions of the serum in 0.9% saline were injected intradermally into separate sites on the shaved dorsal surface of 250-350g. Wistar rats. 72 hours later the animals were challenged by i.v. injection of 0.3ml of 1% ovalbumin mixed with 0.1ml of a 5% solution of pontamine sky blue dye both in isotonic saline buffered with pH. 7.2 Sorenson buffer (P.B.S.). The rats were killed after 20 minutes and the diameter of the blue wheals at the antibody injection sites were measured. The starting dilution of the serum was adjusted so that there was no response, after challenge, at the site of injection of the highest dilution and a maximum response at the lowest dilution. Typically six twofold serial dilutions of the serum from one-fourth to […] were used.
Compounds were tested for their ability to reduce the diameter of the wheals at the injection sites of dilutions of antibody which on all the controls have less than maximum response. Amounts of the compounds were administered to rats each amount to a test group of six animals at a specified time prior to intravenous challenge with ovalbumin. The diameters of the blue wheals which developed on the test group of animals were compared with those on a control group of six animals treated in the same way as the test group, but which had not received the compound under test.
% Inhibition of P.C.A. = 100 (1 - a/b)
a = The mean of the sum of the diameters of the wheals produced in the test group of animals at those antibody sites where all the control group of animals gave less than maximum response.
b = The mean of the sum of diameters of the wheals produced in the control group of animals at those antibody sites where all the animals in the group gave less than maximum response.
The preferred method of administration was as a solution of the test compound dissolved in pH 7.2 buffer and neutralised with sodium bicarbonate. For those compounds having insoluble sodium salts, the salts were isolated by reaction of the free nitro compound with 2.5N sodium hydroxide and the filtered sodium salt washed free of alkali with water. The dried salts were then administered as a suspension in 1% methyl cellulose.

[1] = 0 h, Time 0 mins (prior to i.v. ovalbumin challenge)
[2] = 0.5 h, Time 30 mins (prior to i.v. ovalbumin challenge)
[3] = 1 h, Time 60 mins (prior to i.v. ovalbumin challenge)

Row | Structure (SMILES) | inhibition in vivo at 25 mg/kg [1] [%] | inhibition in vivo at 100 mg/kg [1] [%] | inhibition in vivo at 25 mg/kg [2] [%] | inhibition in vivo at 100 mg/kg [2] [%] | inhibition in vivo at 25 mg/kg [3] [%] | inhibition in vivo at 100 mg/kg [3] [%]
1 | CC1=C(C)C[C@H]2C(=O)C([N+](=O)[O-])C(=O)[C@H]2C1 (relative stereo) [1(b), 5,6-Dimethyl-2-nitro cis-3a,4,7,7a-tetrahydroindane-1,3-dione] | 16 | 61 | 6 | 42 | – | –
2 | CC1C[C@@H]2C(=O)C([N+](=O)[O-])C(=O)[C@@H]2CC1C (stereo partly drawn) [2(b), 5,6-Dimethyl cis-hexahydro-2-nitro indane-1,3-dione] | 7 | 31 | 6 | 37 | – | –
3 | CC1C=CC(C)[C@@H]2C(=O)C([N+](=O)[O-])C(=O)[C@H]12 (stereo partly drawn) [3(b), 4,7-Dimethyl-2-nitro cis-3a,4,7,7a-tetrahydroindane-1,3-dione] | -8 | -8 | 7 | -1 | – | –
4 | CC1CCC(C)[C@@H]2C(=O)C([N+](=O)[O-])C(=O)[C@H]12 (stereo partly drawn) [4(b), 4,7-Dimethyl cis-hexahydro-2-nitro indane-1,3-dione] | 4 | 19 | – | – | 13 | 11
5 | O=C(O)C1C=CC[C@@H]2C(=O)C([N+](=O)[O-])C(=O)[C@H]12 (stereo partly drawn) [5(b), 4-Carboxy-2-nitro cis-3a,4,7,7a-tetrahydroindane-1,3-dione] | 2 | -3 | -1 | -6 | – | –
6 | O=C1C2C3C=CC(C3)C2C(=O)C1[N+](=O)[O-] (stereo not shown) [6(b), 4-Nitro tricyclo [5,2,1,0^2,6] dec-8-ene-3,5-dione] | -9 | 4 | – | – | -9 | 17
7 | O=C1C2C3CCC(C3)C2C(=O)C1[N+](=O)[O-] (stereo not shown) [7(b), 4-Nitro tricyclo [5,2,1,0^2,6] decane-3,5-dione] | 8 | 26 | -3 | 9 | – | –
8 | CC1C=CC[C@@H]2C(=O)C([N+](=O)[O-])C(=O)[C@H]12 (stereo partly drawn) [8(b), 4-Methyl-2-nitro-cis-3a,4,7,7a-tetrahydroindane-1,3-dione] | 12 | 41 | 13 | 52 | – | –
9 | COC(=O)C1C=CC[C@@H]2C(=O)C([N+](=O)[O-])C(=O)[C@H]12 (stereo partly drawn) [9(b), 4-Carbomethoxy-2-nitro-cis-3a, 4,7,7a-tetrahydroindane-1,3-dione] | 2 | 10 | -9 | -5 | – | –
10 | CC(=O)OC1CCC[C@@H]2C(=O)C([N+](=O)[O-])C(=O)[C@H]12 (stereo partly drawn) [10(b), 4-Acetoxy-cis-hexahydro-2-nitro-indane-1,3-dione] | 12 | 11 | 17 | 20 | – | –
11 | O=C1C2C3C=CC(CC3)C2C(=O)C1[N+](=O)[O-] (stereo not shown) [12(b), 4-Nitro tricyclo [5,2,2,0^2,6] undec-8-ene-3,5-dione] | 0 | -3 | 29 | 32 | – | –
12 | O=C1C2C3CCC(CC3)C2C(=O)C1[N+](=O)[O-] (stereo not shown) [13(b), 4-Nitro tricyclo [5,2,2,0^2,6] undecane-3,5-dione] | 14 | 8 | 13 | 29 | – | –
13 | CC1CCC[C@@H]2C(=O)C([N+](=O)[O-])C(=O)[C@H]12 (stereo partly drawn) [II(b), 4-Methyl-2-nitro-cis-hexahydroindane-1,3-dione] | -13 | 11 | -8 | 17 | – | –
